The results in this text go back to patent US11351194B2, “Method for proliferating neural progenitor cells and composition for treating neurological diseases containing proliferated neural progenitor cells” (COLLEGE OF MEDICINE POCHON CHA UNIVERSITY INDUSTRY-ACADEMIC …, priority 2014, dated 2022).

Experiment [1] deals with fetal neural progenitor cells. The experiment can be described thus: Cytometry (cell number). To be noted: 1 μg/ml, 7 days; compared to general condition; Ps<0.0001; FIG. 2B.
Method: The resulting fetal neural progenitor cells were compared with those cultured under a general culture condition. Regarding the general culture condition, 20 ng/ml of each of bFGF and EGF and an α-supplement (2.5 mg insulin, 25 mg transferrin, 0.03 μM sodium selenite, 36.5 mg L-glutamine, and 0.75 g L-glucose) were added to 500 ml of a mixed medium of DMEM/F12 (1:1) containing 0.5 ml of Primocin, which is an antibiotic formulation, and then, the fetal neural progenitor cells were cultured therein (M1), or under a condition in which the B27 supplement was further added (M2).
The fetal neural progenitor cells were seeded on a 6-well plate at a density of 2×10^5 cells/well, cultured for 7 days, and then subjected to cytometry.
The test system of experiment [2] is fetal neural progenitor cells. Description: Cell viability by MTT assay. The class given is cell-based, human. The settings on record: 7 days. An excerpt:
Human neural progenitor cells were isolated from 14 week-old human fetuses. Before obtaining the fetus samples, informed consents that had been sufficiently described to parents in advance were received. In addition, the sample collection and use thereof for research were approved by the Institutional Review Board of the CHA Hospital. Ventral midbrain tissues in the brain of a […] human fetus were isolated according to the method disclosed in Storch et al. 2001; and Milosevic et al. 2006, 2007, and then, dissociated into a single cell suspension by treating the ventral midbrain tissues in a solution containing 0.1 mg/ml of papain and 100 μg/ml of DNase at a temperature of 37° C. for about 30 minutes. The single cell suspension was washed with phosphate buffered saline (PBS), and then, incubated in 50 μg/ml of antipain at a temperature of 37° C. for 30 minutes. The resulting neural progenitor cells were plated, in a monolayer, at a density of 30,000 cells/cm^2, onto a culture dish that was pre-coated with 15 μg/ml of poly-L-omithine and 4 μg/ml of fibronectin, and then, cultured. The cultured fetus neural progenitor cells were seeded on a 96-well plate at a density of 1×10^4 cells/well, cultured for 7 days, and treated with an MTT reagent. Then, by measuring optical density thereof (at a wavelength of 570 nm), the cell viability was analyzed.

The test system of experiment [3] is fetal neural progenitor cells. The experiment can be described thus: Immunocytochemistry analysis using GFAP, Tuj1 and DAPI markers. The settings on record: for expression of Tuj1 / expression of GFAP: in comparison with M1 and M2 (general culture condition); for expression of Tuj1: Ps<0.02, FIG. 4C; for expression of GFAP: Ps<0.04, FIG. 4B; for frequency of expression of both GFAP and Tuj1: FIG. 4D. In kind it is cell-based, human.
Method: (§1) 20 ng/ml of each of bFGF and EGF (available from Peprotech, R&D system) and 10 ml of a B27 supplement (available from GIBCO) were added to 500 ml of a mixed medium of DMEM/F12 (1:1) containing 0.5 ml of Primocin, which is an antibiotic formulation, and then, the fetal neural progenitor cells were cultured under a condition in which 1 μg/ml of DL-alpha-tocopherol acetate (M3), 1 μg/ml of (t)-alpha-tocopherol (M4), or a combination thereof (M5) was added. The resulting fetal neural progenitor cells were compared with those cultured under a general culture condition. Regarding the general culture condition, 20 ng/ml of each of bFGF and EGF and an α-supplement (2.5 mg insulin, 25 mg transferrin, 0.03 μM sodium selenite, 36.5 mg L-glutamine, and 0.75 g L-glucose) were added to 500 ml of a mixed medium of DMEM/F12 (1:1) containing 0.5 ml of Primocin, which is an antibiotic formulation, and then, the fetal neural progenitor cells were cultured therein (M1), or under a condition in which the B27 supplement was further added (M2).
The neural progenitor cells were seeded on a 24-well plate at a density of 1×10^5 cells/well, cultured for 7 days, and then, subjected to immunocytochemistry analysis using GFAP, Tuj1, and DAPI markers.

In experiment [4] the test system is fetal neural progenitor cells. The experiment can be described thus: Immunocytochemistry analysis using Ki67, Nestin and DAPI markers. To be noted: for expression of Ki67: in comparison with M1 and M2 (general culture condition), Ps<0.0001, FIG. 3B; for frequency of expression of both Ki67 and Nestin: in comparison with general culture condition, FIG. 3C. In kind it is cell-based, human.
Method: as §1
The fetal neural progenitor cells were seeded on a 24-well plate at a density of 1×10^5 cells/well, cultured for 7 days, and then, subjected to immunocytochemistry analysis using Ki67, Nestin, and DAPI markers.

Where [5] appears, read: 1 μg/ml in medium, in comparison with general culture condition (M1, M2), Ps<0.02, FIG. 1.
Where [6] appears, read: hypoxia (oxygen about 0.1% to about 10%) in comparison with normoxia, M3: P<0.009, M4: P<0.01, M5: P<0.001.
Where [7] appears, read: 7 days, in comparison with general culture condition, Ps<0.0001.
The mark [8] stands for this setting: 7 days, in comparison with general culture condition, Ps<0.0001, FIG. 4E.
Where [9] appears, read: 7 days, printed comparator: cells cultured under normoxia, Ps≤0.0001, FIG. 3D.

In the case of `CC(=O)Oc1c(C)c(C)c2c(c1C)CCC(C)(CCCC(C)CCCC(C)CCCC(C)C)O2` (racemic) [DL-alpha-tocopherol acetate], the “number of fetal neural progenitor cells” value in experiment [1] is on record as “significantly increased number of fetal neural progenitor cells”. Further, the “cell viability (MTT, optical density 570 nm)” value in experiment [2] (setting [5]) and in experiment [2] (setting [6]) was “higher cell viability that is statistically significant” each time. Further, the “expression of Tuj1” value in experiment [3] (7 days) is reported as “reduced expression of Tuj1 in a statistically significant manner”. For the same compound, the “expression of GFAP” value in experiment [3] (7 days) is given as “reduced expression of GFAP in a statistically significant manner”. In addition, in experiment [3] (setting [7]), the “frequency of expression of both GFAP and Tuj1” value was “lower frequency of expression of both GFAP and Tuj1 together”. For the same compound, the “expression of Dapi” value is “statistically significant increase in expression of Dapi” in experiment [3] (setting [8]) and “statistically significant increase in the expression of Dapi” in experiment [4] (setting [9]). For the same compound, the “expression of Ki67” value in experiment [4] (7 days) was “increased expression of Ki67 of significance”. Besides, the “frequency of expression of both Ki67 and Nestin” value in experiment [4] (7 days, Ps≤0.0001) is “higher frequency of expression of both Ki67 and Nestin together in a statistically significant manner”.

With `Cc1c(C)c2c(c(C)c1O)CC[C@@](C)(CCC[C@H](C)CCC[C@H](C)CCCC(C)C)O2` [alpha-tocopherol, (t)-alpha-tocopherol], the “number of fetal neural progenitor cells” value in experiment [1] is reported as “significantly increased number of fetal neural progenitor cells”. For the same compound, the “cell viability (MTT, optical density 570 nm)” value in experiment [2] (setting [5]) and in experiment [2] (setting [6]) was “higher cell viability that is statistically significant” throughout. Moreover, the “expression of Tuj1” value in experiment [3] (7 days) is on record as “reduced expression of Tuj1 in a statistically significant manner”. Besides, in experiment [3] (7 days), the “expression of GFAP” value was “reduced expression of GFAP in a statistically significant manner”. The “frequency of expression of both GFAP and Tuj1” value in experiment [3] (setting [7]) was “lower frequency of expression of both GFAP and Tuj1 together”. Also, the “expression of Dapi” value in experiment [3] (setting [8]) is “statistically significant increase in expression of Dapi”; in experiment [3] (hypoxia in comparison with normoxia, M4: P<0.006), “statistically significant increase in the expression of Dapi”; in experiment [4] (setting [9]), “statistically significant increase in the expression of Dapi”; in experiment [4] (hypoxia compared with normoxia, M4 P<0.006, M5 P<0.0001) it was “statistically significant increase in the expression of Dapi”. In addition, in experiment [4] (7 days), the “expression of Ki67” value was “increased expression of Ki67 of significance”. Also, in experiment [4] (7 days, Ps≤0.0001), the “frequency of expression of both Ki67 and Nestin” value is “higher frequency of expression of both Ki67 and Nestin together in a statistically significant manner”.
